The record followed here is patent US20060252798A1, “Metal ion chelators and therapeutic use thereof” (priority 2003, published 2006).

Values joined by “and” are separate entries in the source; they are usually repeats but may differ in a detail not shown here. Identical values can stand only once.

Experiment [1] relates to SK-N-MC neuroepithelioma cells. The experiment is described as follows: 3H-thymidine incorporation by SK-N-MC cells. It is filed as cell-based, human. The note with it: 20 h incubation then 2 h label; Mean ± SD, 4 experiments. Here is the method: After a 20 h incubation of the SK-N-MC cells with a selection of analogues, ^3H-thymidine, ^3H-leucine, or ^3H-uridine (1 μCi/ml) was added for 2 h at 37° C. The cells were detached from the 96 well plate using 1 mM EDTA in Ca(II)/Mg(II)-free PBS and collected and washed using a cell harvester (Tomtec Harvester 96, Linbrook, Queensland, Australia). Radioactivity was measured on a P-scintillation counter (LKB Wallace, Turku, Finland).
A general note: Incorporation of labelled thymidine or its analogues reports DNA synthesis.

Another experiment concerns GADD45 and WAF1 mRNA. Briefly: Northern blot of WAF1 and GADD45 mRNA expression in SK-N-MC cells. Format: cell-based, human. Conditions: DFO 100 μM, other chelators 25 μM, 20 h at 37° C. (FIG. 7). How it is done: FIG. 7. […] Northern blotting was performed using standard procedures (see Example 6).
Northern blot analysis was performed by isolating total RNA using the Total RNA Isolation Reagent (Advanced Biotechnologies Ltd, Surrey, United Kingdom). The membranes were hybridised with probes specific for human WAF1, GADD45, and β-actin. The WAF1 probe consisted of a 1 kb fragment from pSXV (ATCC; Cat. No. 79928). The GADD45 probe consisted of a 760 bp fragment from human GADD45 cDNA cloned into pHu145B2 (kindly supplied by Dr. Albert Fornace, National Cancer Institute, NIH, Maryland). The β-actin probe consisted of a 1.4 kb fragment from human β-actin cDNA cloned into pBluescript SK− (ATCC; Cat. No. 37997).

Experiment [2] deals with iron regulatory proteins (IRPs). Briefly: IRP-RNA-binding activity, gel-retardation assay, SK-N-MC cells. It is filed as cell-based, human. Conditions: DFO 100 μM, FAC 100 μg/ml, other chelators 25 μM, 20 h (FIG. 8).
Description: The IRP-RNA-binding activity was then assessed by the gel-retardation assay. Aliquots of cell lysate containing 2 μg of protein were incubated with 0.1 ng (approximately 1×10^5 cpm) of ^32P-labelled riboprobe for 30 min at room temperature. Using this protocol the level of RNA added was saturating. Unprotected probe was degraded by incubation with 1 U of RNAse T1 for 10 min at room temperature. Heparin (5 mg/ml) was then added for another 10 min to exclude non-specific binding. The IRE-protein complexes were analyzed on 6% non-denaturing polyacrylamide gels. In parallel experiments, samples were treated with ferricyanide (FeCN, 5 mM) and 0.5% β-mercaptoethanol (β-ME), prior to addition of the IRE probe. This procedure results in the conversion of IRP1, whether spontaneously active or not, into an active IRE-binding form.^22
For a further experiment, the system named is active caspase-3. Briefly: Protein level of active caspase-3 in M109 cells (western blotting). Format: cell-based, mouse. The note with it: 1 μM. Here is the method:
(§1) FIG. 14. Effect of Dp44mT (1 μM) on the (A,B) protein levels of active caspase-3, -8 and -9, and (C,D) the activity of caspase-3, -8 and -9 in cultured M109 cells in the absence (C) and presence (D) of cell-permeable caspase inhibitors. (A) Caspase-3, -8, and -9 levels after Dp44mT treatment at indicated times as detected by western blotting (upper panel). The anti-β-actin antibody was used to ensure equal protein loading (lower panel). (B) Densitometric analysis of the expression of caspase-3, -8, and -9 as a function of time normalized to β-actin (C) Caspase activity induced by Dp44mT (1 μM) at 0-48 h was expressed as a percentage of the 0 h time value. (D) Cell-permeable inhibitors of caspase-3, -8 or -9 at 1 μM prevented activation of these enzymes when incubated with Dp44mT (1 μM) for 48 h. Results are mean±SEM of three separate experiments.
(§2) Rabbit anti-active caspase-3 antibody, rabbit anti-active caspase-8 antibody and Annexin V fluorescein isothiocyanate (FITC) were from BD PharMingen (San Diego, Calif., USA). Anti-h-cytc MoAb was from R&D Systems Minneapolis, Minn., USA). Rabbit anti-active caspase-9 antibody, mouse anti-Bcl-2 and mouse anti-Bax antibodies were obtained from Santa Cruz (Santa Cruz, Calif., USA). Mouse anti-mouse β-actin antibody, horseradish peroxidase-conjugated antirabbit, and anti-mouse IgG were from Sigma Chemical Co. (St. Louis, Mo., USA).
(§3) To determine the role of caspase activation in Dp44mT-induced apoptosis in M109 cells, protein levels of active caspase-3, -8 and -9 (FIG. 14A,B) and their enzymatic activity (FIG. 14C,D) were examined.

For another experiment, the system named is active caspase-8. Briefly: Protein level of active caspase-8 in M109 cells (western blotting). The note with it: 1 μM. Format: cell-based, mouse. How it is done: as §1, §2, §3
In general terms: Immunoblotting shows a protein as a band on a membrane.

For the next experiment, the system named is active caspase-9. Briefly: Protein level of active caspase-9 in M109 cells (western blotting). Format: cell-based, mouse. Conditions: 1 μM. Here is the method: as §1, §2, §3
For experiment [3], the system named is holo-cytochrome c (h-cytc). Briefly: Release of holo-cytochrome c from mitochondria into cytosol of M109 cells. It is filed as cell-based, mouse. The note with it: 1 μM, 2 h exposure (FIG. 15A). Here is the method: Due to the importance of h-cytc release from the mitochondrion on apoptosis induction,^8 further studies investigated the effect of Dp44mT on this process (FIG. 15A). Preparation of cytosolic and mitochondrial fractions and western blotting were carried out using standard techniques.^27 There was very little h-cytc expression in the cytosolic fractions of control M109 cells (i.e., at 0 h), with the greatest amount of h-cytc being found in the mitochondrion at this time (FIG. 15A). […] The release of h-cytc into the cytosol plateaued after a 4 h incubation with Dp44mT and then decreased to that found in control cells after 24 and 48 h. This increase in cytosolic h-cytc correlated with the loss from the mitochondrion (FIG. 15A). The near complete disappearance of h-cytc from the cytosol at 24 and 48 h may be due to its release from cells or its degradation^28 (FIG. 15A).

A further experiment concerns intracellular ROS. The experiment is described as follows: Intracellular ROS assay (DCF-DA, flow cytometry), M109 cells. It is filed as cell-based, mouse. The note with it: 1 μM. How it is done: Intracellular ROS generation was assessed using the cell-permeable dye 2′,7′-dichlorofluorescein-diacetate (DCF-DA) (Sigma). DCF-DA readily diffuses into cells and becomes highly fluorescent when oxidised by O2^•−, H2O2, or OH^−.^29 Cellular fluorescence intensity is directly proportional to the level of intracellular ROS.^29 M109 cells (1×10^5 cells/well) were incubated with or without 1 μM Dp44mT for 0-48 h or 50 μM H2O2 (positive control) for 10 min at 37° C. The cells were then incubated with DCF-DA (5 μM) for 20 min at 37° C., washed twice, and detached from the culture plates. The fluorescence of oxidised DCF in cells was measured using flow cytometry.^29)
To test whether induction of h-cytc release from the mitochondrion (FIG. 15A) and the imbalance of Bcl-2/Bax expression (FIG. 15B) was due to the presence of ROS, intracellular ROS were measured by flow cytometry using the DCFH-DA probe which becomes fluorescent when oxidised by O2^•−, H2O2, or OH^−.^29 Incubation of M109 cells with Dp44mT (1 μM) increased the levels of oxidised probe as a function of time. After 2 h, a 25±10% increase in oxidised DCFH-DA fluorescence was found compared to the 0 h time point, and this increased to 486±96% after 48 h (FIG. 15C). For comparison, a 10 min incubation with the positive control, H2O2 (50 μM), increased fluorescence to 1312±46% of the 0 h time point (FIG. 15C)
On the technique in general: A flow cytometer gives signals particle by particle.

As to `CC(=O)N(O)CCCCCNC(=O)CCC(=O)N(O)CCCCCNC(=O)CCC(=O)N(O)CCCCCN` [DFO, desferrioxamine], the “3H-Thymidine Incorporation” value in experiment [1] was 29 ± 13 % Control and 29 + 13 % Control. The “GADD45 and WAF1 mRNA expression” value with GADD45 and WAF1 mRNA is on record as “up-regulation”. Further, the “IRP-RNA binding activity” value in experiment [2] was “increase”.
`CN(C)C(=S)NN=C(c1ccccn1)c1ccccn1` [Dp44mT, di-2-pyridylketone 4,4-dimethyl-3-thiosemicarbazone]: the caspase-3 protein level with active caspase-3 (2 h) is listed as 168 % of the control; with active caspase-3 (6 h) it was 400 % of the control; with active caspase-3 (12 h) it was 380 % of the control; in the experiment on active caspase-3 (24 h), “about 4 fold that of control cells”; in the experiment with active caspase-3 (48 h), 5.5 fold that of control cells. Besides, the “caspase-8 protein level” value in the experiment with active caspase-8 (2 h) was “not increased”; with active caspase-8 (6 h) it was 150 % of the control; with active caspase-8 (12 h), 400 % of the control; in the experiment with active caspase-8 (24 h), “about 4 fold that of control cells”; with active caspase-8 (48 h), 3.4 fold that of control cells. Moreover, the caspase-9 protein level in the experiment with active caspase-9 (2 h) was 171 % of the control; in the experiment on active caspase-9 (6 h) it was 280 % of the control; in the experiment on active caspase-9 (12 h) it was 280 % of the control; in the experiment on active caspase-9 (24 h) it was “about 4 fold that of control cells”; in the experiment with active caspase-9 (48 h), “greater than 10 fold that of control cells”. Moreover, the “h-cytc release from the mitochondrion” value in experiment [3] is listed as “h-cytc was found in the cytosolic fraction”. In addition, in the experiment on intracellular ROS (2 h), the “increase in oxidised DCFH-DA fluorescence compared to the 0 h time point” value amounted to 25±10%. In the experiment on intracellular ROS (48 h), the “oxidised DCFH-DA fluorescence (increased to)” value came to 486±96%.
